Legend:
[1] = tested on: vMyx-GFP in human A549 cells; assay: MYXV progeny virus titration assay (A549 infection, titrated on RK13 cells); format: cell-based, Myxoma virus; conditions: for levels of progeny virus (MYXV titers): A549 cells
[2] = tested on: MYXV expressing a GFP reporter gene (vMyx-GFP) in human A549 cells; assay: MYXV reporter gene (GFP) expression in human A549 cells, fluorescence microscopy; format: cell-based, Myxoma virus; conditions: human A549 cells pre-treated 1 h with different concentrations; vMyx-GFP MOI 1.0, 0.1 or 0.01; images at 48 h and 72 h post infection
[3] = tested on: VACV expressing GFP (VACV-GFP) in human A549 cells; format: cell-based, vaccinia virus
[4] = tested on: VACV-GFP in human A549 cells; format: cell-based, vaccinia virus
[5] = target: CRM1 (Homo sapiens, UniProt O14980); conditions: reported (Dickmanns et al. 2015); cited from earlier work
Sequence of CRM1 (O14980 whole entry): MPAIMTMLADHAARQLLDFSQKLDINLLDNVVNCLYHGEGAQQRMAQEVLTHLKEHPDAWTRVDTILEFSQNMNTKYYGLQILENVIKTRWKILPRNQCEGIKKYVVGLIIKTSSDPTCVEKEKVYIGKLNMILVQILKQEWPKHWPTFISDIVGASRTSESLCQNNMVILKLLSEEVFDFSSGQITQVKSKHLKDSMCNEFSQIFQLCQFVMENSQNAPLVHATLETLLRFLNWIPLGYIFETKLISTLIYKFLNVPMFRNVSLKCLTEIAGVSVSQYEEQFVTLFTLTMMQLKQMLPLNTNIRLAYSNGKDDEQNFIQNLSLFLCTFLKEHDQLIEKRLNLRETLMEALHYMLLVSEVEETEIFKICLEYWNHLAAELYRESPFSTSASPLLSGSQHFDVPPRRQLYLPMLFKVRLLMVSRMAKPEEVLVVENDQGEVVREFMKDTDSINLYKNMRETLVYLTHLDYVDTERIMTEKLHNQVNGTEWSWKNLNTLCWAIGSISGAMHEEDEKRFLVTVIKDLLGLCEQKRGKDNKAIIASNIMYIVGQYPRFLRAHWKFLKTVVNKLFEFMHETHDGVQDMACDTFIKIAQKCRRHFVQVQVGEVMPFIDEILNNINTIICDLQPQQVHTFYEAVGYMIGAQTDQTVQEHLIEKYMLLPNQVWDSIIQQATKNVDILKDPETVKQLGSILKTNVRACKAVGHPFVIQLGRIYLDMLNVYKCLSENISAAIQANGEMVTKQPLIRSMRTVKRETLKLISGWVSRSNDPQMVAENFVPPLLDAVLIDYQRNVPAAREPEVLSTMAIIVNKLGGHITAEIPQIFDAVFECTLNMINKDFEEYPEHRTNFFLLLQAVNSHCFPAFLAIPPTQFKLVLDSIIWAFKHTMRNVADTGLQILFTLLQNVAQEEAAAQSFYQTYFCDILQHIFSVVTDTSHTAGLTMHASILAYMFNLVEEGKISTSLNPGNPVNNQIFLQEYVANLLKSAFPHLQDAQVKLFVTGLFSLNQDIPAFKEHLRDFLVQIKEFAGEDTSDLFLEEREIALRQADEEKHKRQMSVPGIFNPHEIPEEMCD

[6] = tested on: HeLa cells; conditions: cited from earlier work
[7] = vMyx-GFP MOI 0.1 or 0.01, harvested after 48 h or 72 h, FIGS. 6A-6B
[8] = vMyx-GFP MOI 1.0, 0.1 or 0.01, inhibitor 0.001, 0.01 or 0.1 μM, harvested after 48 h, FIGS. 5A-5D

Row | Molecule | levels of progeny virus (MYXV titers) [1, 7] | levels of progeny virus (MYXV titers) [1, 8] | MYXV replication, as indicated by reporter gene expression (GFP fluorescence) [2] | VACV replication, as indicated by reporter gene expression (GFP fluorescence) [3] | levels of progeny virus (VACV titers) [4] | concentration that shuts down CRM1-mediated nuclear protein export [5] | progeny virus production enhancement compared to the other tested drugs ([1]; FIGS. 6A and 6B, MOI 0.1 or 0.01, 48 h or 72 h) | concentration that arrests cells at the G1 phase [6]
1 | Ratjadone A | higher levels of progeny virus | higher levels of progeny virus | enhanced MYXV replication | – | – | – | – | –
2 | CC(/C=C/C[C@@H](C)/C=C(C)/C=C/[C@@H]1OC(=O)C=C[C@@H]1C)=C\[C@@H](C)C(=O)[C@@H](C)[C@H](O)[C@@H](C)C/C(C)=C/C(=O)O [Leptomycin A] | higher levels of progeny virus | higher levels of progeny virus | enhanced myxoma virus (MYXV) replication | enhanced VACV replication | higher levels of progeny virus | – | – | –
3 | CC(/C=C/C1CC=CC(=O)O1)=C\C(C)C/C=C/C(C)=C/C(C)C(=O)C(C)C(O)C(C)C/C(C)=C/C(=O)O (stereo not shown) [Anguinomycin A] | higher levels of progeny virus | higher levels of progeny virus | enhanced MYXV replication | – | – | – | – | –
4 | Anguinomycin | – | – | – | – | – | above 10 nM | – | –
5 | CCC(=C/[C@H](C)C/C=C/C(C)=C/[C@@H](C)C(=O)[C@@H](C)[C@H](O)[C@@H](C)C/C(C)=C/C(=O)O)/C=C/[C@@H]1OC(=O)C=C[C@@H]1C [Leptomycin B] | higher levels of progeny virus | higher levels of progeny virus | enhanced MYXV replication | enhanced VACV replication | higher levels of progeny virus | – | highest progeny virus production enhancement | 50 pg/mL
